# Values quoted from earlier work in patent US8513407B2, “Process for the preparation of N-acyl-(epi)K5-amine-O-sulfate-derivatives and products thus obtained” (GLYCORES 2000 S.r.l., priority 2002, dated 2013).
# System: HIV
# Conditions: compared with K5-O-oversulfate and heparin
substance,measurement,value
"K5-N,O-oversulfate",anti-HIV activity,more active than K5-O-oversulfate and much more active than heparin
